In assay [1] the test system is Hepatitis C virus. Put plainly: Antiviral activity against HCV infected in human Huh-7.5.1 cells assessed as reduction in viral infection incubated for 48 hrs. The format is functional, organism-based, Hepacivirus hominis. Conditions: Huh-7.5.1, 48 h.
Assay [2] concerns Poliovirus 1. Put plainly: Antiviral activity against human poliovirus 1 infected in human MRC5 cells incubated for 1 hr by crystal violet staining based plaque assay. Type of assay: functional, organism-based. Conditions: Enterovirus C, MRC5, 1 h.
For assay [3], the system named is Middle East respiratory syndrome-related coronavirus. Put plainly: Antiviral activity against MERS-COV infected in human MRC5 cells incubated for 1 hr by crystal violet staining based plaque assay. Type of assay: functional, organism-based.
Assay [4] relates to Human coronavirus 229E. Put plainly: Antiviral activity against hCoV-229E infected in human MRC5 cells incubated for 1 hr by crystal violet staining based plaque assay. The format is functional, organism-based.
In assay [5] the test system is SARS-CoV-2. Put plainly: Antiviral activity against SARS-CoV-2 USA_WA1/2020 infected in African green monkey Vero E6 cells assessed as reduction in virus replication preincubated with cell for 2 hrs followed by viral infection for 1 hr and measured after 48 hrs by RT-qPCR method. Type of assay: functional. As to conditions: Severe acute respiratory syndrome coronavirus 2, USA_WA1/2020, Vero C1008; time 51 hrs.

`COc1ccc([C@@]23Oc4cc(OC)cc(OC)c4[C@]2(O)c2nc4n(c(=O)c2[C@H]3c2ccccc2)CCC4)cc1`: in assay [1], the EC50 was found to be 0.04 nM.

Turning to `COc1ccc([C@@]23Oc4cc(OC)cc(OC)c4[C@]2(O)[C@H](O)[C@H](C(=O)N(C)C)[C@H]3c2ccccc2)cc1` [ROCAGLAMIDE], the EC50 in assay [1] was 4 nM.

On to `COC(=O)[C@H]1[C@@H](O)[C@@]2(O)c3c(OC)cc(O[C@@H]4O[C@@H]([C@H](O)CO)CO[C@H]4OC)cc3O[C@@]2(c2ccc(OC)cc2)[C@@H]1c1ccccc1` [SILVESTROL], for which the EC50 in assay [2] was found to be 20 nM; in assay [3] (MRC5, 1 h), 1.3 nM; in assay [4] (MRC5, 1 h) it was 3 nM. Besides, the EC90 in assay [3] (MRC5, time 1 hrs) amounted to 27 nM; in assay [4] (MRC5, time 1 hrs) it was 12 nM.

In the case of `COc1cc2c(c(OC)n1)[C@]1(O)[C@H](O)[C@H](CN(C)C)[C@@H](c3ccccc3)[C@]1(c1ccc(C#N)cc1)O2` [ZOTATIFIN], the IC90 in assay [5] came out at 37 nM.

The record behind these values is ChEMBL document CHEMBL5233256, “Flavaglines as natural products targeting eIF4A and prohibitins: From traditional Chinese medicine to antiviral activity against coronaviruses” (Eur J Med Chem, 2020).
